Laboratory results as given in ChEMBL document CHEMBL1139192, “Novel bis(indolyl)maleimide pyridinophanes that are potent, selective inhibitors of glycogen synthase kinase-3” (Bioorg Med Chem Lett, 2007).

Tests used:
[1] = biological target: T1, Inhibitor of nuclear factor kappa-B kinase subunit beta (Homo sapiens) (UniProt O14920); test: Residual activity of human IKK-beta at 1 uM relative to control
T1 sequence (whole entry): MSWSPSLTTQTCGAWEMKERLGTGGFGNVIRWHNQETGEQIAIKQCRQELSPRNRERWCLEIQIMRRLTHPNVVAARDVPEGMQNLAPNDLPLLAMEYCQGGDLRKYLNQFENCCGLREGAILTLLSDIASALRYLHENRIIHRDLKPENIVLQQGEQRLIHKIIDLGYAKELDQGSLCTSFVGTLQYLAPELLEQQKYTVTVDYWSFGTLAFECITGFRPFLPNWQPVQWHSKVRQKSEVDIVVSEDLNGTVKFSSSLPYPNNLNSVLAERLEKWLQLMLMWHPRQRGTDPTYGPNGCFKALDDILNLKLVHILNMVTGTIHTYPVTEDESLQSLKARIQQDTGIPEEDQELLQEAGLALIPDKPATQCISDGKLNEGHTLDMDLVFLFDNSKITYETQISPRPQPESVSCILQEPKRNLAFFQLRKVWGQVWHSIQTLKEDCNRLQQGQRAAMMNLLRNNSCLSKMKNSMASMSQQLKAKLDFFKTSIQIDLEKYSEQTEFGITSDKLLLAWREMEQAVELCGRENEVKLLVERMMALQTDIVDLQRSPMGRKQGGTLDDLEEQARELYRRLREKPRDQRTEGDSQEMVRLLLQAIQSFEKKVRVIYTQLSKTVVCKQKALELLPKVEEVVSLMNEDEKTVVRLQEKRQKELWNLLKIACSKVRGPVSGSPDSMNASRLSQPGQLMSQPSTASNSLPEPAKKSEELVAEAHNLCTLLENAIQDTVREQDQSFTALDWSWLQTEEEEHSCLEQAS

[2] = biological target: Glycogen synthase kinase-3 beta (Homo sapiens, UniProt P49841); test: Residual activity of human GSK3-beta at 1 uM relative to control
[3] = Inhibition of MEK1 at 1 uM relative to control; values are per cent of control; settings: Homo sapiens
[4] = biological target: Tyrosine-protein kinase BTK (Homo sapiens) (UniProt Q06187); test: Inhibition of human BTK at 1 uM relative to control; values are per cent of control
[5] = biological target: Tyrosine-protein kinase Fyn (Homo sapiens) (UniProt P06241); test: Inhibition of human Fyn at 1 uM relative to control; values are per cent of control
[6] = biological target: T2, Serine/threonine-protein kinase Nek2 (Homo sapiens) (UniProt P51955); test: Inhibition of human NEK2 at 1 uM relative to control; values are per cent of control
T2 sequence (whole entry): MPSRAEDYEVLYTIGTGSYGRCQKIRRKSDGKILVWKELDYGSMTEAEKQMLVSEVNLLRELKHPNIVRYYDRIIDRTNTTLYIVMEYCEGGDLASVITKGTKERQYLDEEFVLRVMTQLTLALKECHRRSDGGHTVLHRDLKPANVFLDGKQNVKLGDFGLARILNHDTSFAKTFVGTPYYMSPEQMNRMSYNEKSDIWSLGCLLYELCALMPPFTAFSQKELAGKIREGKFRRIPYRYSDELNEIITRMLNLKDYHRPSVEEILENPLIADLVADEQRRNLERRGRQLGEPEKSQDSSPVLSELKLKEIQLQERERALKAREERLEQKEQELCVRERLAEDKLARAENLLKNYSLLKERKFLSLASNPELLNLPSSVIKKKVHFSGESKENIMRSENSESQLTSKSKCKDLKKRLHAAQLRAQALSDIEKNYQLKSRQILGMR

[7] = biological target: T3, Serine/threonine-protein kinase D2 (Homo sapiens) (UniProt Q9BZL6); test: Inhibition of human PKD2 at 1 uM relative to control; values are per cent of control
T3 sequence (whole entry): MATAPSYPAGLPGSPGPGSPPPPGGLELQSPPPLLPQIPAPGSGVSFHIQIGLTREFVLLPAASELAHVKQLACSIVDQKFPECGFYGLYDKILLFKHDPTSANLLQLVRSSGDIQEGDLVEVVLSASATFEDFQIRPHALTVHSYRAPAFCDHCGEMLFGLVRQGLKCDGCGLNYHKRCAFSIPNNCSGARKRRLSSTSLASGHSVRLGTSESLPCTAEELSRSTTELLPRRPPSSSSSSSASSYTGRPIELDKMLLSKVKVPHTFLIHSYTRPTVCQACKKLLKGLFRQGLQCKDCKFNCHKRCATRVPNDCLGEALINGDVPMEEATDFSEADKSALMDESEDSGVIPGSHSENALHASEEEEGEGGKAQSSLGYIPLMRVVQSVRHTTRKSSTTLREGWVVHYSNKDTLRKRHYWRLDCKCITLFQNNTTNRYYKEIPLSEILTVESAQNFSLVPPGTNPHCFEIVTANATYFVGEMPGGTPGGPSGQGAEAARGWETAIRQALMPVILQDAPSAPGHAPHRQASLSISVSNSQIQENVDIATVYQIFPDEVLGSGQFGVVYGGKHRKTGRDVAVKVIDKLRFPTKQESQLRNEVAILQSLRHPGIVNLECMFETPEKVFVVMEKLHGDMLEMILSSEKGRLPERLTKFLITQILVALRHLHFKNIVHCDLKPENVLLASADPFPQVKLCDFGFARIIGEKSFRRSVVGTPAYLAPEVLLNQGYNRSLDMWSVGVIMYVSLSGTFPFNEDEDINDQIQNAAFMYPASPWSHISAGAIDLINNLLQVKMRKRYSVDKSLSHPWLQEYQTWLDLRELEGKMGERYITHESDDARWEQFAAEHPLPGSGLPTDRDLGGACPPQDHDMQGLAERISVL

[8] = biological target: Mitogen-activated protein kinase 11 (Homo sapiens) (UniProt Q15759); test: Inhibition of human SAPK2b at 1 uM relative to control; values are per cent of control
Chain of Mitogen-activated protein kinase 11 (Homo sapiens) (Q15759 whole entry): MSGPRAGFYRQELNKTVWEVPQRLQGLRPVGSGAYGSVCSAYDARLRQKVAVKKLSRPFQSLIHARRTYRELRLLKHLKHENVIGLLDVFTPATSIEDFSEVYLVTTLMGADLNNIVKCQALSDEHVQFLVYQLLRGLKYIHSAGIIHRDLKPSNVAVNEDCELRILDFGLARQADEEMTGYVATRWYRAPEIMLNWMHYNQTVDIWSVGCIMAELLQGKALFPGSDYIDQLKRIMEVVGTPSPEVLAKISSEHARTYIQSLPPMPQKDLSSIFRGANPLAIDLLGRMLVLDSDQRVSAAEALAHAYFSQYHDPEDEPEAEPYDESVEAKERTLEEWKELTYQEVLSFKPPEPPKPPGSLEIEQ

Chain of Tyrosine-protein kinase Fyn (Homo sapiens) (P06241 2-537 limits assumed): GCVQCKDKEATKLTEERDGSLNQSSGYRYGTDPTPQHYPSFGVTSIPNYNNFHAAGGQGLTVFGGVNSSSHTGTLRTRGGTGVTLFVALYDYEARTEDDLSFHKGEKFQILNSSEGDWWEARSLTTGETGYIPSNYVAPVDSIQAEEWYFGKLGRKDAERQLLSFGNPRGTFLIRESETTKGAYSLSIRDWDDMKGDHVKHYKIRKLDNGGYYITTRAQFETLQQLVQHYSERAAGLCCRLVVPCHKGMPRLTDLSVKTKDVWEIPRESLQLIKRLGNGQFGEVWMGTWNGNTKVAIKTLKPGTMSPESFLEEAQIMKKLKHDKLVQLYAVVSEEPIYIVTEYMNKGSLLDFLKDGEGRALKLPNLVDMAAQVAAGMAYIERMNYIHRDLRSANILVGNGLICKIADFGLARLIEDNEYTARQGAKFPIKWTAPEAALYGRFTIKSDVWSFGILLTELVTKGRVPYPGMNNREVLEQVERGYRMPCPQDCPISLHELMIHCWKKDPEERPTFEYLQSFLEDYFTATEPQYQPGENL
Chain of Glycogen synthase kinase-3 beta (P49841 whole entry, looked up): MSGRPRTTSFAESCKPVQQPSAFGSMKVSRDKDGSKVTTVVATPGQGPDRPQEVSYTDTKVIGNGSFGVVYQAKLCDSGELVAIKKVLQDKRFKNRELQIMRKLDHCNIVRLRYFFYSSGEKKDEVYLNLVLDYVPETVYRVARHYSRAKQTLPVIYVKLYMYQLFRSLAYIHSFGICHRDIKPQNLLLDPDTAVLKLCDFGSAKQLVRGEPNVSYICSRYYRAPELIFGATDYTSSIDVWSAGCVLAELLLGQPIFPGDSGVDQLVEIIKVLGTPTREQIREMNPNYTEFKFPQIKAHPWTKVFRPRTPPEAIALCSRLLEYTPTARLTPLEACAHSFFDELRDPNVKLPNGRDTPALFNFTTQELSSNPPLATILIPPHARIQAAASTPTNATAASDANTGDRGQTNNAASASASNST
Chain of Tyrosine-protein kinase BTK (Homo sapiens) (Q06187 whole entry): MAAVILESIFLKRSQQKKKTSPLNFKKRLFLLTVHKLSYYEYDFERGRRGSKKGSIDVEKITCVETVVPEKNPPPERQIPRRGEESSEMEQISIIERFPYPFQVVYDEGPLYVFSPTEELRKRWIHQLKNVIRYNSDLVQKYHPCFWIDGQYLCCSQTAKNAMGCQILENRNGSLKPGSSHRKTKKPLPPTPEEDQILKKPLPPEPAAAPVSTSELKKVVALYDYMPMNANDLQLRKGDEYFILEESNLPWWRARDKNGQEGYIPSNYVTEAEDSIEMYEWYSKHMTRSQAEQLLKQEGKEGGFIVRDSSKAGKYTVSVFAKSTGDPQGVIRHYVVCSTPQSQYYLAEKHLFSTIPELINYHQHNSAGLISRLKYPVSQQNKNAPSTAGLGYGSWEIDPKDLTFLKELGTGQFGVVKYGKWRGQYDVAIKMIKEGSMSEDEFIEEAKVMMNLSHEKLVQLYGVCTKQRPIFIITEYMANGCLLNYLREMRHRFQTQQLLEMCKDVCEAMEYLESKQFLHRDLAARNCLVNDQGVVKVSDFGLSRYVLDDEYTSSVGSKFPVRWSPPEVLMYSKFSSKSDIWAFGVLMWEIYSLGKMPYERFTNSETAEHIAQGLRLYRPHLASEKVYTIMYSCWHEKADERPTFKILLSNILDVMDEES

Compound | residual activity [1] [%] | residual activity [2] [%] | residual activity [3] [%] | residual activity [4] [%] | residual activity [5] [%] | residual activity [6] [%] | residual activity [7] [%] | residual activity [8] [%]
CN(C)c1nc2ccc1CCCn1cc(c3ccccc31)C1=C(C(=O)NC1=O)c1cn(c3ccccc13)CC2 | 128 | 1 | 76 | 105 | 103 | 104 | 100 | 104
CN(C)c1cc2cc(n1)CCCn1cc(c3ccccc31)C1=C(C(=O)NC1=O)c1cn(c3ccccc13)CCC2 | 124 | 1 | 93 | 106 | 106 | 102 | 97 | 119
O=C1NC(=O)C2=C1c1cn(c3ccccc13)CCCc1ccc(c(N3CCCC3)n1)CCCn1cc2c2ccccc21 | 130 | 7 | – | 104 | 103 | 99 | 115 | 99
O=C1NC(=O)C2=C1c1cn(c3ccccc13)CCCc1cc(nc(N3CCCC3)c1)CCCn1cc2c2ccccc21 | 125 | 3 | 91 | 106 | 106 | 105 | 103 | 114
